The source of these data is patent publication US10494597B2, “Contamination mitigation” (Butamax Advanced Biofuels LLC, priority 2014, dated 2019).

In assay [1] the test system is cell inoculum (shake flask culture). The assay is described as follows: Shake flask culture with crude COFA with or without BHT, YSI glucose measurements. Format: cell-based. Particulars: BHT 0 wt % (control) to 5 wt % in crude COFA; 50% v/v COFA; 40 g/L glucose synthetic medium; 30° C., 260 rpm. The method, then: In an experimental example, a cell inoculum originated from a 72 hour seed flask with a 30 g/L synthetic medium. The culture was inoculated into 40 g/L glucose in synthetic medium. […] The flasks were incubated in a thirty degree Celsius (30° C.), 260 revolutions per minute (rpm) shaker. One to one point five milliliter (1-1.5) mL samples were taken at points in time.

The subject of assay [2] is yeast (e.g., Saccharomyces). Particulars: at comparable concentrations; cited from earlier work.
The test system of assay [3] is gram-positive and gram-negative bacteria (e.g., lactobacillus). Particulars: cited from earlier work.

Regarding `Cc1cc(C(C)(C)C)c(O)c(C(C)(C)C)c1` [BHT, butylated hydroxytoluene], the glucose consumption result in assay [1] is on record as “No difference in glucose consumption was observed”. The effect on yeast entry in assay [2] is “does not affect yeast”. In assay [3], the “antimicrobial activity to gram-positive and gram-negative bacteria” value is “exhibits antimicrobial activity”.
